Among the data in PubChem BioAssay AID624323 (Sanford-Burnham Center for Chemical Genomics, 2012) are solubility values, retold here.

Values after ≈ are worked out from the molar mass of the structure shown. Active and inactive are the calls of the source. No rule for the calls is given here.

The series relates to aqueous buffer solubility, pH 5.0/6.2/7.4. Description: aqueous buffer solubility at three pH values, ADME assay, biophysical, set 2 (AID 624323). The note with it: at 100 µM, stronger effect = higher value.
Where [1] appears, read: measured here: solubility at pH 5.0.
The mark [2] stands for this setting: measured here: solubility at pH 6.2.

What is called solubility is how much of the substance goes into solution per volume. Regarding `Cc1ccc(C)c(NS(=O)(=O)c2cc(C(=O)Nc3ccccc3-c3ccccc3)ccc2Cl)c1`, the solubility is 0.81 µg/mL (inactive) (≈ 1.65 µM). Under setting [1], the solubility was < 0.1 µg/mL. For the same compound, the solubility under setting [2] was < 0.1 µg/mL.
For the compound `CSc1nc(-c2ccc(C)cc2)nc(C(Cl)Cl)n1`, the solubility is 0.01 µg/mL (inactive) (≈ 0.0333 µM). The solubility under setting [1] is 0.02 µg/mL (≈ 0.0666 µM). The same compound displayed a solubility under setting [2] of 0.01 µg/mL (≈ 0.0333 µM).
Regarding `C=CCn1c(SCC(=O)c2ccc(O)c(O)c2)nnc1-c1ccccc1OC`, the solubility was 24 µg/mL (≈ 60.4 µM). For the same compound, the solubility under setting [1] turned out to be 4.5 µg/mL (≈ 11.3 µM). Under setting [2], this compound showed a solubility of 5.3 µg/mL (≈ 13.3 µM).
For `N#C/C(=C\c1ccc([N+](=O)[O-])o1)c1nc2ccccc2[nH]1`, in that order: 0.14 µg/mL (inactive) (≈ 0.5 µM), 0.08 µg/mL (≈ 0.285 µM) and 0.12 µg/mL (≈ 0.428 µM).
On the same counts, the results for `O=c1c(O)c(-c2cc(O)c(O)c(O)c2)oc2cc(O)cc(O)c12` are 1.7 µg/mL (inactive) (≈ 5.34 µM), 3.2 µg/mL (≈ 10.1 µM) and 5.3 µg/mL (≈ 16.7 µM).
For `O=C(COc1ccccc1Br)NCCc1nc2ccccc2[nH]1`, in that order: > 37 µg/mL, > 37 µg/mL and > 37 µg/mL.
As to `Cc1ccc(S(=O)(=O)C(c2ccccc2)c2c(C)noc2C)cc1` (stereo not drawn), the solubility was 16.5 µg/mL (≈ 48.3 µM). In addition, the solubility under setting [1] amounted to 15.5 µg/mL (≈ 45.4 µM). Also, under setting [2], the solubility was determined as 16.9 µg/mL (≈ 49.5 µM).
As for `CN1CSC(=S)N(C)C1`, the solubility is > 16 µg/mL. Under setting [1], the solubility amounted to 12.4 µg/mL (≈ 76.4 µM). The compound also had a solubility under setting [2] of 12.7 µg/mL (≈ 78.3 µM).
On the same counts, the results for `COc1nc(-c2ccccc2)nnc1-c1ccccc1` are 0.38 µg/mL (inactive) (≈ 1.44 µM), 1 µg/mL (≈ 3.8 µM) and 0.78 µg/mL (≈ 2.96 µM).
For `Cc1nc(SCc2nc3ccccc3[nH]2)c2oc3ccccc3c2n1`, in that order: 0.11 µg/mL (inactive) (≈ 0.318 µM), 0.26 µg/mL (≈ 0.751 µM) and 0.22 µg/mL (≈ 0.635 µM).
On the same counts, the results for `COc1ccccc1N(/N=C1\Sc2ccccc2C1=O)C(C)=O` are 2.4 µg/mL (inactive) (≈ 7.35 µM), 2.4 µg/mL (≈ 7.35 µM) and 2.7 µg/mL (≈ 8.27 µM).
Take `CCCOc1ccc(-c2nc(OC)c3ccccc3n2)cc1`: the solubility is 0.02 µg/mL (inactive) (≈ 0.0679 µM). The solubility under setting [1] turned out to be 0.05 µg/mL (≈ 0.17 µM). The solubility under setting [2] is < 0.01 µg/mL.
On the same counts, the results for `O=S(=O)(NC1CCCCC1N1CCOCC1)c1ccc(Cl)cc1` (stereo not drawn) are 26.2 µg/mL (≈ 73 µM), > 36 µg/mL and > 36 µg/mL.
On to `Cn1cnc([N+](=O)[O-])c1Sc1ncnc2nc[nH]c12`, for which the solubility is > 27 µg/mL. Also, the solubility under setting [1] is > 27 µg/mL. Besides, the solubility under setting [2] was > 27 µg/mL.
As to `O=C(c1ccccn1)N(Cc1cccs1)C1(C(=O)NC2CCCCC2)CCCCC1`, the solubility is 22.7 µg/mL (≈ 53.3 µM). This compound also came in with a solubility under setting [1] of 7.4 µg/mL (≈ 17.4 µM). The compound further returned a solubility under setting [2] of 15 µg/mL (≈ 35.2 µM).
On the same counts, the results for `Cn1nnnc1Sc1ncnc2scc(-c3ccccc3)c12` are 3.5 µg/mL (inactive) (≈ 10.7 µM), 2.9 µg/mL (≈ 8.88 µM) and 3.1 µg/mL (≈ 9.5 µM).
For `COc1ccc(OC)c(S(=O)(=O)Nc2cnc3ccccc3c2)c1`, in that order: 25.8 µg/mL (≈ 74.9 µM), 20.8 µg/mL (≈ 60.4 µM) and 25.7 µg/mL (≈ 74.6 µM).
Consider `c1ccc(CC2CCN(c3ncnc4sccc34)CC2)cc1`, for which the solubility was < 0.01 µg/mL (inactive). Further, under setting [1], the solubility is < 0.01 µg/mL. The solubility under setting [2] was found to be 0.01 µg/mL (≈ 0.0323 µM).
For `Brc1ccc2c(c1)CN1CCCC1=N2`, in that order: > 25 µg/mL, > 25 µg/mL and > 25 µg/mL.
For `CCCc1cc(C(=O)N(C2CCCCC2)C2CCCCC2)no1`, in that order: 1.3 µg/mL (inactive) (≈ 4.08 µM), 2.1 µg/mL (≈ 6.59 µM) and 2 µg/mL (≈ 6.28 µM).
`CCOC(=O)C(C)Oc1cccc2c(=O)n(CC(=O)Nc3ccc4c(c3)OCCO4)ccc12` (stereo not drawn): the solubility was 0.36 µg/mL (inactive) (≈ 0.796 µM). The compound further returned a solubility under setting [1] of 0.27 µg/mL (≈ 0.597 µM). The compound further came in with a solubility under setting [2] of 0.31 µg/mL (≈ 0.685 µM).
On the same counts, the results for `CC[C@H]1CN2CCc3cc(OC)c(OC)cc3[C@@H]2C[C@@H]1C[C@H]1NCCc2cc(OC)c(OC)cc21` are > 55 µg/mL, > 55 µg/mL and > 55 µg/mL.
On the same counts, the results for `O=C(O)c1ccc(N2C(=O)/C(=C/c3ccc(-c4ccc([N+](=O)[O-])cc4)o3)C=C2c2ccccc2)cc1` are 0.79 µg/mL (inactive) (≈ 1.65 µM), 0.59 µg/mL (≈ 1.23 µM) and 13.4 µg/mL (≈ 28 µM).
As to `O=C(O)c1ccccc1OCc1ccccc1Br`, the solubility was > 30 µg/mL. The solubility under setting [1] is > 30 µg/mL. Moreover, under setting [2], the solubility is > 30 µg/mL.
In the case of `Cc1ccc(N2CCN(S(=O)(=O)N3CCCCC3)CC2)c(C)c1`, the solubility was 1.6 µg/mL (inactive) (≈ 4.74 µM). This compound gave a solubility under setting [1] of 1.8 µg/mL (≈ 5.33 µM). Further, under setting [2], the solubility was found to be 1.5 µg/mL (≈ 4.44 µM).
Take `O=S1(=O)Nc2c(ccc3cccnc23)-c2ccccc21`: the solubility was > 2.8 µg/mL (inactive). The compound further returned a solubility under setting [1] of 9.6 µg/mL (≈ 34 µM). Further, the solubility under setting [2] is 13.6 µg/mL (≈ 48.2 µM).
